This data set concerns HCT-116. Briefly: Cytotoxicity against HCT116 cells. The class given is cell-based. The note with it: human.

Structures are written as SMILES.

This note sets out measurements from ChEMBL document CHEMBL1147127, “Halogenated cyclic peptides isolated from the sponge Corticium sp” (J Nat Prod, 2007).

For the compound `Cn1c(C(=O)NCC(=O)N[C@H]2CNC(=O)[C@@H](Cc3c[nH]c4ccc(Br)cc34)NC(=O)[C@@H](O)CNC(=O)[C@@H](CC(N)=O)NC2=O)cc(Cl)c1Cl` [CYCLOCINAMIDE B], the Activity result is given as “Not Active”.
